Source: patent US8748117B2, “Probe for detection and quantification of nitric oxide, and method for detecting and quantifying nitric oxide using the same” (Japan Science and Technology Agency, priority 2004, dated 2014)
Entries after “also recorded” stand apart in the source; their conditions may differ.

Legend:
[1] = test system: CHO-K1 cells expressing NOA-1; assay: CFP/YFP emission ratio of NOA-1 in CHO-K1 cells upon NOC-7 / NO stimulation; assay type: cell-based
Description: cDNAs respectively expressing the hybrid proteins were constructed. The hybrid proteins respectively comprise cGMP-visualization probe (hereinafter described as CGY) connected with C-terminus of sGCα or sGCβ through the linker of SEC ID NO.1 (GGEQKLISEEDLLESR). The CYG was prepared according to the method in Patent documents 1 and 2. The heterodimmer of the hybrid proteins was named as “NOA-1” (fluorescent indicator for NO with a signal amplifier) (FIGS. 2A and B). At N-terminus of NOA-1, FLAG tag of SEC ID NO.2 (MDYKDDDDK) may be attached.
(§1) Two cDNAs were introduced into CHO K1 cells having little amount of endogenous sGC thereby coexpressing both sGCα-CGY and sGCβ-CGY in the cells.
In the same manner as in Example 1, both sGCα-CGY and sGCβ-CGY were coexpressed in CHO-K1 cells.
In the same manner as in Example 1, the CHO-K1 cells coexpressed with both sGCα and sGCβ were stimulated with various amount of NOC-7 to measure the changes of CFP/YFP emission ratio dependent to NO concentrations (FIG. 6).
In the same manner as in Example 1, the CHO-K1 cells expressing NOA-1 were stimulated with various amount of NOC-7 to measure the changes of CFP/YFP emission ratio by NO and 8-Br-cGMP stimulations (FIGS. 7A and 7B).
The NO-dependent FRET response of NOA-1 was confirmed by using NO solutions prepared by bubbling NO gas. […] Importantly, NOA-1 senses not only an increase in the NO concentration but also its removal by oxidation and/or volatilization. This NO-dependent reversible response of NOA-1 is caused by the reversible binding of NO to the heme group in NOA-1 and endogenous phosphodiesterases that immediately hydrolyze the generated cGMP molecules after the removal of NO.

[2] = test system: CHO-K1 cells expressed with sGCα-CGY or sGCβ-CGY; assay: CFP/YFP emission ratio in CHO-K1 cells expressing sGCα-CGY or sGCβ-CGY alone; assay type: cell-based; conditions: subsequent addition of 2 mM 8-Br-cGMP after 50 nM NOC-7
[3] = test system: phosphatidyl inositol 3-kinase (PI(3)K); assay: PI(3)K inhibitor effect on basal NO (NOA-1 emission ratio) in endothelial cells; assay type: cell-based, bovine
Description: The stable generation of the basal NO concentration was examined in vascular endothelial cells cultured in a serum-containing medium.
That is, the endothelial cells expressing NOA-1 was added with 100 μM LY 294002), and the CFP/YFP emission ratio was monitored for the NO concentrations in the cells.

[4] = test system: CHO-K1 cells expressed with NOA-1; assay: Selectivity of NOA-1 FRET response (CO, natriuretic peptide, cAMP generation); assay type: cell-based; conditions: for CFP/YFP emission ratio of NOA-1: excess concentration, several cultured cell types including CHO-K1 cells
Excerpt: As to the selectivity of NOA-1, the FRET response of NOA-1 for carbon monoxide (CO) was examined.
CO is a sGC activator but has a lower affinity with sGC than NO. In addition, the CO-bound sGC is known to have much lower cyclase activity than NO-bound sGC because of each different coordination to the heme iron. Physiologically generated CO thus appears not to affect the response of NOA-1.
Effect of natriuretic peptide stimulation or cAMP generation on the FRET response of NOA-1 was examined.

sGC = assay: Block of the NOC-7 response of NOA-1 by sGC inhibitor pretreatment in CHO-K1 cells; assay type: cell-based; conditions: cells pretreated with NS 2028 (100 μM, FIG. 3-b)
Excerpt: as §1

[5] = test system: endothelial cells from bovine pulmonary artery; assay: NOA-1 CFP/YFP emission ratio in vascular endothelial cells; assay type: cell-based
Description: (§2) (1) NOA-1 was expressed in endothelial cells from bovine pulmonary artery cultured in a serum-supplemented media. […] This is based on difference of basal NO concentration between CHO-K1 cell and vascular endothelial cell. (3) Endothelial cells and CHO-K1 cells were pretreated with an inhibitor for nitric oxide synthase (NOS), 1 mM L-NAME and the CFP/YFP emission ratio of NOA-1 was observed.
(4) The response of NOA-1 for excess NOC-7 between the endothelial and CHO-K1 cells was compared.
We stimulated the endothelial and CHO-K1 cells with 10 μM NOC-7, which generates enough concentration of NO to immediately saturate the NOA-1 response. […] As a result, in endothelial cells, the obtained change in the emission ratio upon the excess NOC-7 stimulation was actually only one-third of that in CHO-K1 cells (FIG. 13B).
(§3) (6) The basal concentration of NO in each vascular endothelial cell was measured. We first inhibited endogenous eNOS with 1 mM L-NAME to remove the basal NO and cGMP generated by the basal NO. The CFP/YFP emission ratios before and after the inhibition of endogenous eNOS, respectively, represent the basal and zero concentrations of NO in each endothelial cell (FIG. 15). To quantitate the basal concentration of NO, we subsequently added various concentrations of NO to each endothelial cell, in which eNOS activity was inhibited with L-NAME. The peak response of NOA-1 was plotted at each concentration of NO. Based on the obtained dose-response of NOA-1 for various concentrations of NO, we measured 1 nM of the basal NO concentration generated in each endothelial cell.

phosphodiesterases (PDE) = assay: Effect of PDE inhibitor on NOA-1 emission ratio in CHO-K1 cells; assay type: cell-based
Description: as §1
The latter recovery of the decreased emission ratio disappeared when the cells were pretreated with an inhibitor of phosphodiesterases (PDE) that hydrolyses cGMP, zaprinast (FIG. 3-c).
as §3

phosphodiesterases = assay: PDE inhibitor effect on NOA-1 emission ratio in endothelial cells; assay type: cell-based, bovine; conditions: 200 μM zaprinast; endothelial cells expressing NOA-1
[6] = biological target: T1, nitric oxide synthase (NOS) (Bos taurus, UniProt P29473); assay: NOS inhibitor effect on NOA-1 emission ratio in endothelial cells; assay type: cell-based, bovine; conditions: 1 mM L-NAME
T1 construct: endogenous in cells; host or cells: bovine pulmonary artery endothelial cells
T1 sequence (P29473 2-1205 limits assumed): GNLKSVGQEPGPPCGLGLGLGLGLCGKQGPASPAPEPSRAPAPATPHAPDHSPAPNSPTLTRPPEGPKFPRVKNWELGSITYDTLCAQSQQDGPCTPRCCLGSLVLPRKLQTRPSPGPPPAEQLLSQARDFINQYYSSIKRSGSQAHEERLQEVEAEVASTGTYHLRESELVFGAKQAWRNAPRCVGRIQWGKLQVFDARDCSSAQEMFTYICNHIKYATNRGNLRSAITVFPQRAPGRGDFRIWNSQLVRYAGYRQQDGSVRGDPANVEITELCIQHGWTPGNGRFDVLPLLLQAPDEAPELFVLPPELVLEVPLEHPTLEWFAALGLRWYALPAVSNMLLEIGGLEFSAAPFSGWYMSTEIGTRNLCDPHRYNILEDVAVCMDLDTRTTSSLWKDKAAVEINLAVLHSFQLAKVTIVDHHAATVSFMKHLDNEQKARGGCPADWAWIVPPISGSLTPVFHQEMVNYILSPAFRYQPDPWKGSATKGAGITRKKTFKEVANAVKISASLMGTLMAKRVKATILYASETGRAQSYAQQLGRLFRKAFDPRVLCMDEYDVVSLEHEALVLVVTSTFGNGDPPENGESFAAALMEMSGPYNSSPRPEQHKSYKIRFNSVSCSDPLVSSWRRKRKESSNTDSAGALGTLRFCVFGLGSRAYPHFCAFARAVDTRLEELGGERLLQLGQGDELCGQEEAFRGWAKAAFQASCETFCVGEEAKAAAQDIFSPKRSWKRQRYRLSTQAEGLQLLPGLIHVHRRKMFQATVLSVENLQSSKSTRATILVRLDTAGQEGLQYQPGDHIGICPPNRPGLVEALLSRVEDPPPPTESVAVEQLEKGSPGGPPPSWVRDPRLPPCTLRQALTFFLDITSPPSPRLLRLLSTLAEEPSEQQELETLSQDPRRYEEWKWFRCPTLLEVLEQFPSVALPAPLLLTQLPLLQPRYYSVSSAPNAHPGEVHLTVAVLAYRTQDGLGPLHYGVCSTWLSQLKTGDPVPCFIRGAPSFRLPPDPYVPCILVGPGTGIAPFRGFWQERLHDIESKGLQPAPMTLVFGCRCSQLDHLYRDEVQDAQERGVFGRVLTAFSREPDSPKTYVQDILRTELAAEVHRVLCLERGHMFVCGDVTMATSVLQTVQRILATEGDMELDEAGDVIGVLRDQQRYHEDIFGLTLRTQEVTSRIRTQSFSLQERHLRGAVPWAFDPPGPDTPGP
Description: as §2

[7] = test system: nitric oxide synthase (NOS); assay: NOS inhibitor effect on NOA-1 emission ratio in CHO-K1 cells; assay type: cell-based; conditions: 1 mM L-NAME
Description: as §2

For `Nc1nc2c(nc(Br)n2[C@@H]2O[C@@H]3COP(=O)(O)O[C@H]3[C@H]2O)c(=O)[nH]1` [8-Br-cGMP], the “plateau response of CFP/YFP emission ratio” value ([1]; addition of 2 mM 8-Br-cGMP after 100 nM NOC-7) was “did not further decrease” and the CFP/YFP emission ratio [2] was “quick decrease”.

With `O=c1cc(N2CCOCC2)oc2c(-c3ccccc3)cccc12` [LY 294002, 2-(4-morpholinyl)-8-phenyl-1(4H)-benzopyran-4-one] the “time to reach plateau of the emission ratio” value ([3]; 100 μM LY 294002) was no more than 25 min, the emission ratio ([3]; 100 μM LY 294002, endothelial cells expressing NOA-1) was “significantly increased” and the “effect on basal NO” value ([3]; endothelial cells, serum-containing medium) was “removed the basal NO concentration; also recorded: inhibitory effect on basal NO generation”.

`CC[C@H](C)[C@@H]1NC(=O)[C@H](CCCNC(=N)N)NC(=O)[C@H](CC(=O)O)NC(=O)[C@H](CCSC)NC(=O)[C@H](CCCNC(=N)N)NC(=O)CNC(=O)CNC(=O)[C@H](Cc2ccccc2)NC(=O)[C@@H](NC(=O)[C@H](CO)NC(=O)[C@H](CO)NC(=O)[C@H](CCCNC(=N)N)NC(=O)[C@H](CCCNC(=N)N)NC(=O)[C@H](CC(C)C)NC(=O)[C@@H](N)CO)CSSC[C@@H](C(=O)N[C@@H](CC(N)=O)C(=O)N[C@@H](CO)C(=O)N[C@@H](Cc2ccccc2)C(=O)N[C@@H](CCCNC(=N)N)C(=O)N[C@@H](Cc2ccc(O)cc2)C(=O)O)NC(=O)CNC(=O)[C@H](CC(C)C)NC(=O)CNC(=O)[C@H](CO)NC(=O)[C@H](CCC(N)=O)NC(=O)[C@H](C)NC(=O)CNC1=O` [atrial natriuretic peptide] was tested, and the “CFP/YFP emission ratio of NOA-1” value [4] was “no significant change”.

For `[C-]#[O+]` [CO, carbon monoxide], the “response of NOA-1 compared with that for 5 nM NO” value ([4]; 100 μM CO) was “transient but much smaller response” and the CFP/YFP emission ratio ([4]; CO up to 10 μM) was “no significant change”.

With `O=c1onc2n1-c1cc(Br)ccc1OC2` [NS 2028] the “transient change in the emission ratio by 5 nM NOC-7” value (sGC) was “completely blocked”.

`CNCCCNN(N=O)C(C)CO` (stereo not drawn) [NOC-7, 3-(2-hydroxy-1-methylethyl-2-nitrosohydrazino)-N-methyl-1-propanamine] was tested, and the CFP/YFP emission ratio ([1]; 1 nM or 5 nM NOC-7) was “dose-dependent transient response; also recorded: NO-dependent transient change”, the CFP/YFP emission ratio ([1]; 10 nM NOC-7) was “reaches a plateau and then slowly recovered to the initial level; also recorded: quick decrease” and the CFP/YFP emission ratio ([1]; 50 nM or 100 nM NOC-7) was “did not show no recovery to the initial level even after 20 minutes”. The CFP/YFP emission ratio ([1]; 100 nM NOC-7, after reaching the plateau) was “did not subsequently show significant recovery for at least 10 min”, the “CFP/YFP emission ratio response on repeated stimulation” value ([1]; second 5 nM NOC-7 stimulation after recovery to the initial value) was “same transient response” and the CFP/YFP emission ratio ([1]; stimulated with 5 nM NOC-7, CHO-K1 coexpressing sGCα-CGY and sGCβ-CGY) was “immediately decreased but gradually recovered up to the initial level”. The “change in the emission ratio upon excess NOC-7 in endothelial cells relative to CHO-K1 cells” value ([5]; 10 μM NOC-7) was “one-third” and the emission ratios ([5]; 10 μM NOC-7, endothelial and CHO-K1 cells) was “immediately decreased”.

For “insulin: stimulation activates the PI(3)K-Akt pathway”, the “NO concentration in the endothelial cells” value ([5]; insulin stimulation) was “further increases the NO concentration”.

`CC(C)NCC(O)c1ccc(O)c(O)c1` (stereo not drawn) [isoproterenol] was tested, and the “CFP/YFP emission ratio of NOA-1” value [4] was “no significant change”.

In the case of `CCCOc1ccccc1-c1nc2nn[nH]c2c(=O)[nH]1` [zaprinast], the “latter recovery of the decreased emission ratio after 5 nM NOC-7” value (phosphodiesterases (PDE); cells pretreated with zaprinast (200 μM, FIG. 3-c)) is reported as “disappeared”, the emission ratio (phosphodiesterases (PDE); treatment with zaprinast, NOA-1 in CHO-K1) is reported as “no significant change” and the CFP/YFP emission ratio (phosphodiesterases) is reported as “gradually decreased and reached the saturation of NOA-1 response”.

`COC(=O)[C@@H](N)CCCNC(=N)N[N+](=O)[O-]` [L-NAME] was tested, and the “CFP/YFP emission ratio of NOA-1” value [6] was “gradually increased” and the “CFP/YFP emission ratio of NOA-1” value [7] was “no significant change”.
